This note sets out measurements from ChEMBL document CHEMBL2375352, “Spirostanoids with 1,4-dien-3-one or 3β,7α-diol-5,6-ene moieties from Solanum violaceum” (Bioorg Med Chem Lett, 2013).

Assay [1] concerns MDA-MB-231. The assay is described as follows: Cytotoxicity against human MDA-MB-231 cells. In kind it is functional, cell-based.
Assay [2] relates to HepG2. The assay is described as follows: Cytotoxicity against human HepG2 cells. The class given is functional, cell-based.
Assay [3] has as its system A549. The assay is described as follows: Cytotoxicity against human A549 cells. In kind it is functional, cell-based.
The subject of assay [4] is MCF7. The assay is described as follows: Cytotoxicity against human MCF7 cells. In kind it is functional, cell-based.
A short description of assay [5]: Cytotoxicity against human Hep3B cells. In kind it is functional, cell-based, Hep 3B2.

Structures are written as SMILES. Values after ≈ are worked out from the molar mass of the structure shown.

Usually IC50 stands for the concentration needed to halve the response being measured. Lower therefore signals higher potency. Take `C[C@H]1CC[C@@]2(OC1)O[C@H]1C[C@H]3[C@@H]4CC=C5C[C@@H](O)CC[C@]5(C)[C@H]4CC[C@]3(C)[C@H]1[C@@H]2C`: the IC50 in assay [1], in assay [2], in assay [3], in assay [4] and in assay [5] was above 20 µg/mL in each case.
For `C[C@@H]1CC[C@@]2(OC1)O[C@H]1C[C@H]3[C@@H]4CCC5=CC(=O)CC[C@]5(C)[C@H]4CC[C@]3(C)[C@H]1[C@@H]2C` [DIOSGENONE], the IC50 in assay [1] was above 20 µg/mL; in assay [2] it was 13.4 µg/mL (≈ 32.6 µM); in assay [3], above 20 µg/mL; in assay [4], above 20 µg/mL; in assay [5] it was above 20 µg/mL.
On to `CC[C@H](/C=C/[C@@H](C)[C@H]1CC[C@H]2[C@@H]3C(=O)C=C4C[C@@H](O)CC[C@]4(C)[C@H]3CC[C@]12C)C(C)C`, for which the IC50 in assay [1], in assay [2], in assay [3], in assay [4] and in assay [5] was above 20 µg/mL throughout.
For the compound `COc1cccc2c1C(=O)c1c(O)c3c(c(O)c1C2=O)C[C@@](O)(C(=O)CO)C[C@@H]3O[C@H]1C[C@H](N)[C@H](O)[C@H](C)O1` [DOXORUBICIN], the IC50 in assay [1] was 0.38 µg/mL (≈ 0.699 µM); in assay [2], 0.4 µg/mL (≈ 0.736 µM); in assay [4], 0.29 µg/mL (≈ 0.534 µM); in assay [5], 0.24 µg/mL (≈ 0.442 µM).
Regarding `COc1cc2ccc(=O)oc2cc1O` [SCOPOLETIN], the IC50 in assay [1] is above 20 µg/mL; in assay [2], above 20 µg/mL; in assay [3], above 20 µg/mL; in assay [4], 17.1 µg/mL (≈ 89 µM); in assay [5] it was above 13.2 µg/mL.
`COc1cc([C@H]2OC[C@H]3[C@@H]2CO[C@@H]3c2cc(OC)c(O)c(OC)c2)cc(OC)c1O` [SYRINGARESINOL]: the IC50 in assay [1] is above 20 µg/mL; in assay [2], above 20 µg/mL; in assay [3], above 20 µg/mL; in assay [4], above 20 µg/mL; in assay [5] it was 15.7 µg/mL (≈ 37.6 µM).
As to `C[C@@H]1CC[C@@]2(OC1)O[C@H]1C[C@H]3[C@@H]4CC=C5C[C@@H](O)CC[C@]5(C)[C@H]4CC[C@]3(C)[C@H]1[C@@H]2C` [DISOGENIN], the IC50 in assay [1], in assay [2], in assay [3], in assay [4] and in assay [5] was above 20 µg/mL in each case.
As for `CC[C@H](CC[C@@H](C)[C@H]1CC[C@H]2[C@@H]3C(=O)C=C4C[C@@H](O)CC[C@]4(C)[C@H]3CC[C@]12C)C(C)C`, the IC50 in assay [1], in assay [2], in assay [3], in assay [4] and in assay [5] was above 20 µg/mL throughout.
Consider `CC(C)[C@@H](C)/C=C/[C@@H](C)[C@H]1CC[C@@H]2[C@]1(C)CC[C@H]1[C@]23C=C[C@]2(C[C@@H](O)CC[C@]12C)OO3` [ERGOSTEROL PEROXIDE], for which the IC50 in assay [1] was 16.7 µg/mL (≈ 39.1 µM); in assay [2], 15.3 µg/mL (≈ 35.6 µM); in assay [3], 14.3 µg/mL (≈ 33.4 µM); in assay [4], 13.4 µg/mL (≈ 31.3 µM); in assay [5], 16.5 µg/mL (≈ 38.5 µM).
Consider `CC(C)[C@@H](C)/C=C/[C@@H](C)[C@H]1CC[C@@H]2[C@]1(C)CC=C1[C@]23C=C[C@]2(C[C@@H](O)CC[C@]12C)OO3`, for which the IC50 was found to be 7.32 µg/mL (≈ 17.2 µM) in assay [1]; 7.73 µg/mL (≈ 18.1 µM) in assay [2]; 10.4 µg/mL (≈ 24.3 µM) in assay [3]; 9.18 µg/mL (≈ 21.5 µM) in assay [4]; 15.5 µg/mL (≈ 36.4 µM) in assay [5].
